Test results as given in patent US9353107B2 (Aurigene Discovery Technologies Limited, priority 2012, dated 2016).
Counter-ions that a name gives are not always drawn.

Target: T1, recombinant human ALK enzyme (ALK WT) (Homo sapiens, UniProt Q9UM73)
T1 construct: purchased Carna Biosciences 08-518
Test: ALK WT cell free enzymatic assay (TR-FRET)
Type: biochemical
Details: 1 μM ATP; for IC50: 10 point dose response; for inhibition at 0.1 µM: compound at 100 nM; for inhibition at 0.1 µM / inhibition at 1 µM: 30 min pre-incubation; for inhibition at 1 µM: compound at 1 μM
How it was run: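 Read-out is TR-FRET (665 nm/615 nm ratio) using an Eu-labeled anti-phosphotyrosine antibody. Compound is pre-incubated 30 min with recombinant human ALK, then reacted 30 min with 1 μM ATP and 40 nM Poly GT substrate. Values are percent inhibition at 100 nM and 1 μM, plus IC50 from 10-point variable-slope regression.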

T1 sequence (Q9UM73 1058-1620 limits assumed): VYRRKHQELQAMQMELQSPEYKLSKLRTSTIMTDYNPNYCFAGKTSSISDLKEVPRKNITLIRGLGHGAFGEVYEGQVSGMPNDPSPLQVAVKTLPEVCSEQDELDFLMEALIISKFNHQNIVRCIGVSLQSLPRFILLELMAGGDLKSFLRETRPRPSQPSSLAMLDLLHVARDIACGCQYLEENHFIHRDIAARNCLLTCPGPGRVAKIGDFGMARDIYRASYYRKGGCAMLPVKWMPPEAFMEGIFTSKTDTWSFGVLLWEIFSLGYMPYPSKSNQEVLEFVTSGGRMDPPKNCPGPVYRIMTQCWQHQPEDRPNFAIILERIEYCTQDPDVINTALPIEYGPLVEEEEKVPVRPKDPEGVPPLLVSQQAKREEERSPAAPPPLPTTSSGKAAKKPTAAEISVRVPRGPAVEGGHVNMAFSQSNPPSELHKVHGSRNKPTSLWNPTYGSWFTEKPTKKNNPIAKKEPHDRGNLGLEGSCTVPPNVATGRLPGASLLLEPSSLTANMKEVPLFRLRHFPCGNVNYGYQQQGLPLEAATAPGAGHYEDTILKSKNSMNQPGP

IC50 | inhibition at 0.1 µM | inhibition at 1 µM | SMILES
< 50 nM | 61% | 100% | COc1ccc(-c2cnc3[nH]cc(-c4cnn(CCc5cccc(F)c5)c4)c3c2)cc1NS(C)(=O)=O [Example 75, N-(5-(3-(1-(3-fluorophenethyl)-1H-pyrazol-4-yl)-1H-pyrrolo[2,3-b]pyridin-5-yl)-2-methoxyphenyl)methanesulfonamide]
< 50 nM | 99% | 100% | Cc1c(-c2c[nH]c3ncc(-c4ccc(C5CCNCC5)c(F)c4)cc23)cnn1Cc1cccc(F)c1 [Example 165, 5-(3-fluoro-4-(piperidin-4-yl)phenyl)-3-(1-(3-fluorobenzyl)-5-methyl-1H-pyrazol-4-yl)-1H-pyrrolo[2,3-b]pyridine]
< 50 nM | 95% | 100% | NC(=O)CN1CCN(c2ccc(-c3cnc4[nH]cc(-c5cnn(Cc6cccc(F)c6)c5)c4c3)cc2)CC1 [Example 103, 2-(4-(4-(3-(1-(3-fluorobenzyl)-1H-pyrazol-4-yl)-1H-pyrrolo[2,3-b]pyridin-5-yl)phenyl)piperazin-1-yl)acetamide]
< 50 nM | 92% | 99% | Fc1cccc(Cn2cc(-c3c[nH]c4ncc(-c5ccc(N6CCNCC6)cc5)cc34)cn2)c1 [Example 39, 3-(1-(3-fluorobenzyl)-1H-pyrazol-4-yl)-5-(4-(piperazin-1-yl)phenyl)-1H-pyrrolo[2,3-b]pyridine hydrochloride]
< 50 nM | 91% | 99% | N#CCCN1CCN(c2cccc(-c3cnc4[nH]cc(-c5cnn(Cc6cccc(F)c6)c5)c4c3)c2)CC1 [Example 34, 3-(4-(3-(3-(1-(3-fluorobenzyl)-1H-pyrazol-4-yl)-1H-pyrrolo[2,3-b]pyridin-5-yl)phenyl)piperazin-1-yl) propanenitrile]
< 50 nM | 98% | 100% | Fc1cccc(Cn2cc(-c3c[nH]c4ncc(-c5ccc(C6CCNCC6)c(F)c5)cc34)cn2)c1 [Example 84, 5-(3-fluoro-4-(piperidin-4-yl)phenyl)-3-(1-(3-fluorobenzyl)-1H-pyrazol-4-yl)-1H-pyrrolo[2,3-b]pyridine]
< 50 nM | 75% | 96% | Cc1c(-c2c[nH]c3ncc(-c4ccc(N5CCN(C[C@H](C)O)CC5)nc4)cc23)cnn1Cc1cccc(F)c1 [Example 162, (S)-1-(4-(5-(3-(1-(3-fluorobenzyl)-5-methyl-1H-pyrazol-4-yl)-1H-pyrrolo[2,3-b]pyridin-5-yl)pyridin-2-yl)piperazin-1-yl)propan-2-ol]
< 50 nM | 96% | 99% | CN1CCN(c2cccc(-c3cnc4[nH]cc(-c5cnn(Cc6cccc(F)c6)c5)c4c3)c2)CC1 [Example 36, 3-(1-(3-fluorobenzyl)-1H-pyrazol-4-yl)-5-(3-(4-methylpiperazin-1-yl)phenyl)-1H-pyrrolo[2,3-b]pyridine]
< 50 nM | 99% | 100% | O=C(CO)N1CCN(c2ccc(-c3cnc4[nH]cc(-c5cnn(Cc6cccc(F)c6)c5)c4c3)cn2)CC1 [Example 154, 1-(4-(5-(3-(1-(3-fluorobenzyl)-1H-pyrazol-4-yl)-1H-pyrrolo[2,3-b]pyridin-5-yl)pyridin-2-yl)piperazin-1-yl)-2-hydroxyethanone]
50 to 250 nM | 20% | 84% | O=C(CC1CC1)N1CCN(c2ccc(-c3cnc4[nH]cc(-c5cnn(Cc6cccc(F)c6)c5)c4c3)cn2)CC1 [Example 160, 2-cyclopropyl-1-(4-(5-(3-(1-(3-fluorobenzyl)-1H-pyrazol-4-yl)-1H-pyrrolo[2,3-b]pyridin-5-yl)pyridin-2-yl)piperazin-1-yl)ethanone]
< 50 nM | 99% | 100% | CN1CCN(c2ccc(-c3cnc4[nH]cc(-c5cnn(Cc6cccc(F)c6)c5)c4c3)cn2)CC1 [Example 137, 3-(1-(3-fluorobenzyl)-1H-pyrazol-4-yl)-5-(6-(4-methylpiperazin-1-yl)pyridin-3-yl)-1H-pyrrolo[2,3-b]pyridine]
< 50 nM | 97% | 100% | CN1CCN(c2ccc(-c3cnc4[nH]cc(-c5cnn(Cc6cc(F)cc(F)c6)c5)c4c3)cn2)CC1 [Example 133, 3-(1-(3,5-difluorobenzyl)-1H-pyrazol-4-yl)-5-(6-(4-methylpiperazin-1-yl)pyridin-3-yl)-1H-pyrrolo[2,3-b]pyridine]
< 50 nM | 95% | 100% | Cc1cccc(Cn2cc(-c3c[nH]c4ncc(-c5ccc(C6CCNCC6)cc5)cc34)cn2)c1 [Example 85, 3-(1-(3-methylbenzyl)-1H-pyrazol-4-yl)-5-(4-(piperidin-4-yl)phenyl)-1H-pyrrolo[2,3-b]pyridine]
< 50 nM | 80% | 98% | COc1cccc(Cn2nc(C)c(-c3c[nH]c4ncc(-c5ccc(N6CCNCC6)cc5)cc34)c2C)c1 [Example 46, 3-(1-(3-methoxybenzyl)-3,5-dimethyl-1H-pyrazol-4-yl)-5-(4-(piperazin-1-yl)phenyl)-1H-pyrrolo[2,3-b]pyridine hydrochloride]
< 50 nM | 70% | 91% | CC(=O)N1CCN(c2ccc(-c3cnc4[nH]cc(-c5c(C)nn(Cc6cccc(F)c6)c5C)c4c3)cc2)CC1 [Example 49, 1-(4-(4-(3-(1-(3-fluorobenzyl)-3,5-dimethyl-1H-pyrazol-4-yl)-1H-pyrrolo[2,3-b]pyridin-5-yl)phenyl)piperazin-1-yl)ethanone]
– | 0% | 25% | CCOc1cccc(Cn2nc(C)c(-c3c[nH]c4ncc(-c5ccc(N6CCNCC6)cc5)cc34)c2C)c1 [Example 54, 3-(1-(3-ethoxybenzyl)-3,5-dimethyl-1H-pyrazol-4-yl)-5-(4-(piperazin-1-yl)phenyl)-1H-pyrrolo[2,3-b]pyridine hydrochloride]
< 50 nM | 84% | 100% | Cc1cccc(Cn2nc(C)c(-c3c[nH]c4ncc(-c5ccc(N6CCNCC6)cc5)cc34)c2C)c1 [Example 51, 3-(3,5-dimethyl-1-(3-methylbenzyl)-1H-pyrazol-4-yl)-5-(4-(piperazin-1-yl)phenyl)-1H-pyrrolo[2,3-b]pyridine hydrochloride]
< 50 nM | 91% | 95% | C[C@H](O)CN1CCN(c2ccc(-c3cnc4[nH]cc(-c5cnn(Cc6cccc(F)c6)c5)c4c3)c(F)c2)CC1 [Example 121, (S)-1-(4-(3-fluoro-4-(3-(1-(3-fluorobenzyl)-1H-pyrazol-4-yl)-1H-pyrrolo[2,3-b]pyridin-5-yl)phenyl)piperazin-1-yl)propan-2-ol]
< 50 nM | 96% | 98% | C[C@H](O)CN1CCC(c2ccc(-c3cnc4[nH]cc(-c5cnn(Cc6cccc(F)c6)c5)c4c3)cc2)CC1 [Example 82A, (S)-1-(4-(4-(3-(1-(3-fluorobenzyl)-1H-pyrazol-4-yl)-1H-pyrrolo[2,3-b]pyridin-5-yl)phenyl)piperidin-1-yl)propan-2-ol]
< 50 nM | 91% | 95% | C[C@H](O)CN1CCN(c2ccc(-c3cnc4[nH]cc(-c5cnn(CCc6ccccc6)c5)c4c3)cc2)CC1 [Example 117, (S)-1-(4-(4-(3-(1-phenethyl-1H-pyrazol-4-yl)-1H-pyrrolo[2,3-b]pyridin-5-yl)phenyl)piperazin-1-yl)propan-2-ol]
50 to 250 nM | 51% | 80% | Cc1nn(Cc2cccc(F)c2)c(C)c1-c1c[nH]c2ncc(-c3ccc(N4CCOCC4)cc3)cc12 [Example 45, 4-(4-(3-(1-(3-fluorobenzyl)-3,5-dimethyl-1H-pyrazol-4-yl)-1H-pyrrolo[2,3-b]pyridin-5-yl)phenyl) morpholine]
< 50 nM | 92% | 100% | NC(=O)CN1CCC(Cc2cccc(-c3cnc4[nH]cc(-c5cnn(Cc6cccc(F)c6)c5)c4c3)c2)CC1 [Example 184, 2-(4-(3-(3-(1-(3-fluorobenzyl)-1H-pyrazol-4-yl)-1H-pyrrolo[2,3-b]pyridin-5-yl)benzyl)piperidin-1-yl)acetamide]
– | 33% | 66% | COc1ccc(-c2cnc3[nH]cc(-c4cnn(Cc5cccc(F)c5)c4)c3c2)cc1NS(=O)(=O)C1CC1 [Example 16, N-(5-(3-(1-(3-fluorobenzyl)-1H-pyrazol-4-yl)-1H-pyrrolo[2,3-b]pyridin-5-yl)-2-methoxyphenyl)cyclopropanesulfonamide]
50 to 250 nM | 63% | 96% | COc1ccc(-c2cnc3[nH]cc(-c4c(C)nn(Cc5cc(F)cc(F)c5)c4C)c3c2)cc1NS(C)(=O)=O [Example 19]
< 50 nM | 96% | 100% | COc1cc(-c2cnc3[nH]cc(-c4c(C)nn(Cc5cc(F)cc(F)c5)c4C)c3c2)cnc1N [Example 177, 5-(3-(1-(3,5-difluorobenzyl)-3,5-dimethyl-1H-pyrazol-4-yl)-1H-pyrrolo[2,3-b]pyridin-5-yl)-3-methoxypyridin-2-amine]
– | 2% | 43% | Cc1nn(Cc2cccc(F)c2)c(C)c1-c1c[nH]c2nc(C3CC3)c(-c3ccc(N4CCNCC4)cc3)cc12 [Example 55, 6-cyclopropyl-3-(1-(3-fluorobenzyl)-3,5-dimethyl-1H-pyrazol-4-yl)-5-(4-(piperazin-1-yl)phenyl)-1H-pyrrolo[2,3-b]pyridine hydrochloride]
